# Where “and” joins values, the source holds several entries; their conditions need not be identical. Equal values may be shown once. Entries after “also recorded” stand apart in the source; their conditions may differ.
# What was measured:
# MERS-CoV = settings: cited from earlier work
# MERS-CoV macro domain [1] = target: T1, MERS-CoV macro domain (Middle East respiratory syndrome-related coronavirus, UniProt K9N638); type: binding
# MERS-CoV macro domain [2] = target: T1, MERS-CoV macro domain; type: binding; remark: listed apart in the source
# MERS-CoV macro domain [3] = target: T1, MERS-CoV macro domain; type: biochemical
# MERS-CoV macro domain [4] = target: T1, MERS-CoV macro domain; type: binding; remark: listed apart in the source
# MERS-CoV macro domain [5] = target: T1, MERS-CoV macro domain; type: binding; remark: listed apart in the source
# T1 sequence (K9N638 1110-1276 limits assumed): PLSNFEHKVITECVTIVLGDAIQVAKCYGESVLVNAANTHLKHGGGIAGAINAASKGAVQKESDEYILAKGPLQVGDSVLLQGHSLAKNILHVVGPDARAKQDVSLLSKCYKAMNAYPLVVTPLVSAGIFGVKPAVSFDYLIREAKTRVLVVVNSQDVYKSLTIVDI
smiles,measurement,setting,value
Oc1ccc(/C=C/c2cc(O)cc(O)c2)cc1 [resveratrol],Effect on replication of MERS-CoV,MERS-CoV,inhibit the replication of MERS-CoV
"NC(=O)c1ccc[n+]([C@@H]2O[C@H](COP(=O)([O-])OP(=O)(O)OC[C@H]3O[C@@H](n4cnc5c(N)ncnc54)[C@H](O)[C@@H]3O)[C@@H](O)[C@H]2O)c1 [NAD, nicotinamide adenine dinucleotide]","Melting temperature (Tm) of the MERS-CoV macro domain in complex, CD",MERS-CoV macro domain [1],46.6 °C
same,"NMR CSP, residue 25",MERS-CoV macro domain [2],0.05155 and 0.0863
same,"NMR CSP, residue 27",MERS-CoV macro domain [2],0.02171 and 0.02658
same,"NMR CSP, residue 35",MERS-CoV macro domain [2],0.0131
same,"NMR CSP, residue 36",MERS-CoV macro domain [2],0.01783
same,"NMR CSP, residue 37",MERS-CoV macro domain [2],0.07975
same,"NMR CSP, residue 38",MERS-CoV macro domain [2],0.01444
same,"NMR CSP, residue 45",MERS-CoV macro domain [2],0.2497
same,"NMR CSP, residue 47",MERS-CoV macro domain [2],0.006205
same,"NMR CSP, residue 48",MERS-CoV macro domain [2],0.04145
same,"NMR CSP, residue 49",MERS-CoV macro domain [2],0.01049
same,"NMR CSP, residue 79",MERS-CoV macro domain [2],0.07732 and 0.1287
same,"NMR CSP, residue 104",MERS-CoV macro domain [2],0.01357 and 0.02257
same,"NMR CSP, residue 115",MERS-CoV macro domain [2],0.005468 and 0.008456
same,"NMR CSP, residue 124",MERS-CoV macro domain [2],0.0754 and 0.108
same,"NMR CSP, residue 128",MERS-CoV macro domain [2],0.1673
same,"NMR CSP, residue 129",MERS-CoV macro domain [2],0.02609
same,"NMR CSP, residue 130",MERS-CoV macro domain [2],0.008538
same,"NMR CSP, residue 132",MERS-CoV macro domain [2],0.01478
same,"NMR CSP, residue 140",MERS-CoV macro domain [2],0.01724 and 0.02911
same,"NMR CSP, residue 143",MERS-CoV macro domain [2],0.0201 and 0.02422
same,"NMR CSP, residue 156",MERS-CoV macro domain [2],0.0383
same,NMR chemical shift perturbation behaviour / exchange regime,MERS-CoV macro domain [2],only a few residues presented CSPs; also recorded: slow-exchange
same,Effect on MAR signals in the deMAR reaction,MERS-CoV macro domain [3],the MAR signals reduced more
same,"Melting temperature (Tm) of the MERS-CoV macro domain in complex, DSF",MERS-CoV macro domain [4],46.5 °C
same,entropy contribution,MERS-CoV macro domain [5],−22.59 ± 3.77 J/mol K
same,n (stoichiometry of binding),MERS-CoV macro domain [5],1.04 ± 0.12 and 0.938 ± 0.13
